Experimental data taken from PubChem BioAssay (NCI).
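Here, GI50 denotes the concentration required for 50% inhibition of growth. TGI: total growth inhibition.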

How the values were obtained:
Experiment in all cases: NCI anticancer screen, dose series, 384-well format; in the data active = GI50 below about 0.43 µM; inactive = the rest
A549 NSCLC = test system: A549 NSCLC
M14 melanoma = test system: M14 melanoma
SF-295 CNS = test system: SF-295 CNS
U251 glioblastoma = test system: U251 glioblastoma
MALME-3M melanoma = test system: MALME-3M melanoma
IGROV1 ovarian = test system: IGROV1 ovarian
HT29 colon = test system: HT29 colon
HCT-15 colon = test system: HCT-15 colon
OVCAR-8 ovarian = test system: OVCAR-8 ovarian
UO-31 renal = test system: UO-31 renal
OVCAR-3 ovarian = test system: OVCAR-3 ovarian
KM12 colon = test system: KM12 colon
UACC-257 melanoma = test system: UACC-257 melanoma
BT-549 breast = test system: BT-549 breast
SK-MEL-28 melanoma = test system: SK-MEL-28 melanoma
SNB-19 CNS = test system: SNB-19 CNS
T-47D breast = test system: T-47D breast
LOX IMVI melanoma = test system: LOX IMVI melanoma
SF-268 CNS = test system: SF-268 CNS
SK-MEL-5 melanoma = test system: SK-MEL-5 melanoma
HCC-2998 colon = test system: HCC-2998 colon
MDA-MB-435 melanoma = test system: MDA-MB-435 melanoma
MOLT-4 leukemia = test system: MOLT-4 leukemia
MDA-MB-468 breast = test system: MDA-MB-468 breast
NCI-H322M lung = test system: NCI-H322M lung
SK-MEL-2 melanoma = test system: SK-MEL-2 melanoma
SF-539 CNS = test system: SF-539 CNS
CCRF-CEM leukemia = test system: CCRF-CEM leukemia
OVCAR-4 ovarian = test system: OVCAR-4 ovarian
A498 renal = test system: A498 renal
CAKI-1 renal = test system: CAKI-1 renal
K-562 leukemia = test system: K-562 leukemia
SW-620 colon = test system: SW-620 colon
OVCAR-5 ovarian = test system: OVCAR-5 ovarian
NCI-H460 NSCLC = test system: NCI-H460 NSCLC
NCI-H522 lung = test system: NCI-H522 lung
DU-145 prostate = test system: DU-145 prostate
HL-60(TB) leukemia = test system: HL-60(TB) leukemia
NCI-H23 lung = test system: NCI-H23 lung
UACC-62 melanoma = test system: UACC-62 melanoma
MDA-MB-231 breast = test system: MDA-MB-231 breast
HOP-62 NSCLC = test system: HOP-62 NSCLC
HCT-116 colon = test system: HCT-116 colon
PC-3 prostate = test system: PC-3 prostate
ACHN renal = test system: ACHN renal
786-0 renal = test system: 786-0 renal
SNB-75 CNS = test system: SNB-75 CNS
HOP-92 NSCLC = test system: HOP-92 NSCLC
NCI-H226 lung = test system: NCI-H226 lung
RXF 393 renal = test system: RXF 393 renal
SN12C renal = test system: SN12C renal
SK-OV-3 ovarian = test system: SK-OV-3 ovarian
RPMI-8226 leukemia = test system: RPMI-8226 leukemia
HS 578T breast = test system: HS 578T breast
TK-10 renal = test system: TK-10 renal
SR leukemia = test system: SR leukemia

COc1ccc(-c2c(Nc3ccccn3)nc3c(C4=CCCCC4)c(-c4ccccc4)[nH]n3c2=O)cc1
10.9 µM: TGI (NCI-H522 lung)
9.51 µM: TGI (DU-145 prostate)
1.09 µM: TGI (SR leukemia)
5.72 µM: TGI (HCT-116 colon)
74.9 µM: TGI (HOP-92 NSCLC)
14.5 µM: TGI (HS 578T breast)
9.1 µM: TGI (SK-MEL-2 melanoma)
2.72 µM: TGI (RXF 393 renal)
8.41 µM: TGI (LOX IMVI melanoma)
inactive: GI50 (A549 NSCLC) 1.44 µM | GI50 (M14 melanoma) 0.841 µM | GI50 (SF-295 CNS) 1.12 µM | GI50 (U251 glioblastoma) 1.27 µM | GI50 (MALME-3M melanoma) 1.29 µM | GI50 (IGROV1 ovarian) 2.45 µM | GI50 (HT29 colon) 4.21 µM | GI50 (HCT-15 colon) 1.36 µM | GI50 (OVCAR-8 ovarian) 2.11 µM | GI50 (UO-31 renal) 3.36 µM | GI50 (OVCAR-3 ovarian) 1 µM | GI50 (KM12 colon) 2.16 µM | GI50 (UACC-257 melanoma) 1.61 µM | GI50 (BT-549 breast) 0.461 µM | GI50 (SK-MEL-28 melanoma) 3.09 µM | GI50 (SNB-19 CNS) 2 µM | GI50 (T-47D breast) 1.06 µM | GI50 (LOX IMVI melanoma) 0.989 µM | GI50 (SF-268 CNS) 0.589 µM | GI50 (SK-MEL-5 melanoma) 0.835 µM | GI50 (HCC-2998 colon) 2.41 µM | GI50 (MDA-MB-435 melanoma) 3.08 µM | GI50 (MDA-MB-468 breast) 0.967 µM | GI50 (NCI-H322M lung) 1.06 µM | GI50 (SK-MEL-2 melanoma) 2.18 µM | GI50 (SF-539 CNS) 1.46 µM | GI50 (OVCAR-4 ovarian) 1.59 µM | GI50 (CAKI-1 renal) 1.38 µM | GI50 (K-562 leukemia) 0.928 µM | GI50 (SW-620 colon) 3 µM | GI50 (OVCAR-5 ovarian) 2.32 µM | GI50 (NCI-H522 lung) 1.04 µM | GI50 (DU-145 prostate) 0.727 µM | GI50 (HL-60(TB) leukemia) 0.58 µM | GI50 (NCI-H23 lung) 1.33 µM | GI50 (UACC-62 melanoma) 0.89 µM | GI50 (MDA-MB-231 breast) 1.24 µM | GI50 (HOP-62 NSCLC) 0.717 µM | GI50 (HCT-116 colon) 1.28 µM | GI50 (PC-3 prostate) 1.58 µM | GI50 (ACHN renal) 1.79 µM | GI50 ([…]-0 renal) 2.41 µM | GI50 (SNB-75 CNS) 8.11 µM | GI50 (HOP-92 NSCLC) 1.94 µM | GI50 (NCI-H226 lung) 2.01 µM | GI50 (SN12C renal) 1.99 µM | GI50 (SK-OV-3 ovarian) 0.604 µM | GI50 (HS 578T breast) 1.06 µM | GI50 (TK-10 renal) 1.64 µM
1.1 µM: TGI (CCRF-CEM leukemia)
9.61 µM: TGI (HOP-62 NSCLC)
2.78 µM: TGI (MDA-MB-468 breast)
2.76 µM: TGI (NCI-H460 NSCLC)
> 100 µM: TGI (A549 NSCLC) | TGI (M14 melanoma) | TGI (SF-295 CNS) | TGI (U251 glioblastoma) | TGI (MALME-3M melanoma) | TGI (IGROV1 ovarian) | TGI (HT29 colon) | TGI (HCT-15 colon) | TGI (OVCAR-8 ovarian) | TGI (UO-31 renal) | TGI (KM12 colon) | TGI (UACC-257 melanoma) | TGI (BT-549 breast) | TGI (SK-MEL-28 melanoma) | TGI (SNB-19 CNS) | TGI (T-47D breast) | TGI (SF-268 CNS) | TGI (HCC-2998 colon) | TGI (MDA-MB-435 melanoma) | TGI (NCI-H322M lung) | TGI (SF-539 CNS) | TGI (OVCAR-4 ovarian) | TGI (A498 renal) | TGI (CAKI-1 renal) | TGI (K-562 leukemia) | TGI (SW-620 colon) | TGI (OVCAR-5 ovarian) | TGI (NCI-H23 lung) | TGI (UACC-62 melanoma) | TGI (PC-3 prostate) | TGI (ACHN renal) | TGI (786-0 renal) | TGI (SNB-75 CNS) | TGI (NCI-H226 lung) | TGI (SN12C renal) | TGI (SK-OV-3 ovarian) | TGI (TK-10 renal)
active: GI50 (MOLT-4 leukemia) 0.189 µM | GI50 (CCRF-CEM leukemia) 0.304 µM | GI50 (A498 renal) 0.309 µM | GI50 (NCI-H460 NSCLC) 0.353 µM | GI50 (RXF 393 renal) 0.108 µM | GI50 (RPMI-8226 leukemia) 0.288 µM | GI50 (SR leukemia) 0.222 µM
1.85 µM: TGI (HL-60(TB) leukemia)
1.88 µM: TGI (RPMI-8226 leukemia)
0.431 µM: TGI (MOLT-4 leukemia)
3.32 µM: TGI (OVCAR-3 ovarian)
2.64 µM: TGI (SK-MEL-5 melanoma)
6.85 µM: TGI (MDA-MB-231 breast)
